Assay in all cases: relative viability (nuclei count vs DMSO), 5 days (fraction); higher = more cells survive
Compound in experiment [1]: Cn1nnc2c(C(N)=O)ncn2c1=O [Temozolomide] + Cc1cc(Nc2cc(N3CCN(C)CC3)nc(Sc3ccc(NC(=O)C4CC4)cc3)n2)n[nH]1 [Tozasertib] (partner 0.1 µM)
The method in brief: (§1)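 Each reported value is a median over duplicate plates. It expresses relative viability: treated-well nuclei count divided by vehicle-well nuclei count. Lung cancer cell lines in 1536-well plates were dosed by pin tool a day after seeding, alone with one drug or with a fixed anchor-drug dose plus five library-drug doses (not always all listed) in √10 steps, and nuclei were counted after 5 days.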

Compound in the experiment “Temozolomide + Alpelisib”: Cn1nnc2c(C(N)=O)ncn2c1=O [Temozolomide] + Cc1nc(NC(=O)N2CCC[C@H]2C(N)=O)sc1-c1ccnc(C(C)(C)C(F)(F)F)c1 [Alpelisib] (partner 2 µM)
Summed up: as §1

Compound in experiment [2]: Cn1nnc2c(C(N)=O)ncn2c1=O [Temozolomide] + N=C(N)NC(=N)NCCc1ccccc1 [Phenformin] (partner 250 µM)
Summed up: as §1

Compound in experiment [3]: Cn1nnc2c(C(N)=O)ncn2c1=O [Temozolomide] + CC(=O)c1c(C)c2cnc(Nc3ccc(N4CCNCC4)cn3)nc2n(C2CCCC2)c1=O [Palbociclib] (partner 0.5 µM)
The method in brief: as §1

Drawing on the supplement of paper PMC10307832, this text covers relative viability for six cell lines.

Consider NCI-H1666, for which the relative viability in experiment [1] (first compound 0.2 µM) is 0.594; in experiment [1] (first compound 0.6325 µM), 0.589; in experiment [1] (first compound 2 µM), 0.631; in experiment [1] (first compound 6.325 µM), 0.531; in experiment [1] (first compound 20 µM), 0.5; in the experiment with Temozolomide + Alpelisib (first compound 0.2 µM), 0.925. Further, the relative viability with Temozolomide + Alpelisib (first compound 0.6325 µM) came to 0.951; with Temozolomide + Alpelisib (first compound 2 µM), 0.808; with Temozolomide + Alpelisib (first compound 6.325 µM), 0.586; in the experiment with Temozolomide + Alpelisib (first compound 20 µM), 0.499; in experiment [2] (first compound 0.2 µM) it was 0.575; in experiment [2] (first compound 0.6325 µM) it was 0.584. In addition, the relative viability in experiment [2] (first compound 2 µM) was found to be 0.585; in experiment [2] (first compound 6.325 µM), 0.526; in experiment [2] (first compound 20 µM), 0.594; in experiment [3] (first compound 0.2 µM), 0.693; in experiment [3] (first compound 0.6325 µM) it was 0.672; in experiment [3] (first compound 2 µM), 0.642. Besides, the relative viability in experiment [3] (first compound 6.325 µM) came to 0.756; in experiment [3] (first compound 20 µM) it was 0.667.

Take COR-L 105: the relative viability in experiment [1] (first compound 0.2 µM) turned out to be 0.342; in experiment [1] (first compound 0.6325 µM), 0.386; in experiment [1] (first compound 2 µM), 0.453; in experiment [1] (first compound 6.325 µM), 0.378; in experiment [1] (first compound 20 µM), 0.371; in the experiment with Temozolomide + Alpelisib (first compound 0.2 µM), 0.915. For the same cell line, the relative viability with Temozolomide + Alpelisib (first compound 0.6325 µM) stood at 1.03; with Temozolomide + Alpelisib (first compound 2 µM) it was 1.15; with Temozolomide + Alpelisib (first compound 6.325 µM), 1.07; with Temozolomide + Alpelisib (first compound 20 µM), 1.02; in experiment [2] (first compound 0.2 µM) it was 0.452; in experiment [2] (first compound 0.6325 µM), 0.603. For the same cell line, the relative viability amounted to 0.594 in experiment [2] (first compound 2 µM); 0.452 in experiment [2] (first compound 6.325 µM); 0.305 in experiment [2] (first compound 20 µM); 0.433 in experiment [3] (first compound 0.2 µM); 0.446 in experiment [3] (first compound 0.6325 µM); 0.402 in experiment [3] (first compound 2 µM). In addition, the relative viability worked out at 0.383 in experiment [3] (first compound 6.325 µM) and 0.33 in experiment [3] (first compound 20 µM).

On to NCI-H2085, for which the relative viability in experiment [1] (first compound 0.2 µM) is 0.735; in experiment [1] (first compound 0.6325 µM), 0.784; in experiment [1] (first compound 2 µM), 0.86; in experiment [1] (first compound 6.325 µM) it was 0.817; in experiment [1] (first compound 20 µM), 0.855; with Temozolomide + Alpelisib (first compound 0.2 µM), 1.01. Besides, the relative viability with Temozolomide + Alpelisib (first compound 0.6325 µM) was determined as 0.927; with Temozolomide + Alpelisib (first compound 2 µM), 0.994; with Temozolomide + Alpelisib (first compound 6.325 µM), 1.1; in the experiment with Temozolomide + Alpelisib (first compound 20 µM) it was 0.953; in experiment [2] (first compound 0.2 µM), 0.594; in experiment [2] (first compound 0.6325 µM) it was 0.707. Moreover, the relative viability in experiment [2] (first compound 2 µM) came to 0.809; in experiment [2] (first compound 6.325 µM), 0.689; in experiment [2] (first compound 20 µM) it was 0.649; in experiment [3] (first compound 0.2 µM), 0.487; in experiment [3] (first compound 0.6325 µM) it was 0.487; in experiment [3] (first compound 2 µM) it was 0.457. The relative viability came to 0.454 in experiment [3] (first compound 6.325 µM) and 0.449 in experiment [3] (first compound 20 µM).

SK-MES-1: the relative viability in experiment [1] (first compound 0.2 µM) was found to be 1.02; in experiment [1] (first compound 0.6325 µM), 0.919; in experiment [1] (first compound 2 µM) it was 0.985; in experiment [1] (first compound 6.325 µM) it was 0.939; in experiment [1] (first compound 20 µM), 0.973; in the experiment with Temozolomide + Alpelisib (first compound 0.2 µM), 1.06. Further, the relative viability with Temozolomide + Alpelisib (first compound 0.6325 µM) stood at 0.919; with Temozolomide + Alpelisib (first compound 2 µM), 1.06; in the experiment with Temozolomide + Alpelisib (first compound 6.325 µM), 0.836; with Temozolomide + Alpelisib (first compound 20 µM), 0.778; in experiment [2] (first compound 0.2 µM), 0.752; in experiment [2] (first compound 0.6325 µM), 0.68. Moreover, the relative viability was determined as 0.7 in experiment [2] (first compound 2 µM); 0.729 in experiment [2] (first compound 6.325 µM); 0.682 in experiment [2] (first compound 20 µM); 0.328 in experiment [3] (first compound 0.2 µM); 0.312 in experiment [3] (first compound 0.6325 µM); 0.332 in experiment [3] (first compound 2 µM). The relative viability amounted to 0.353 in experiment [3] (first compound 6.325 µM) and 0.332 in experiment [3] (first compound 20 µM).

On to NCI-H1734, for which the relative viability stood at 0.305 in experiment [1] (first compound 0.2 µM); 0.251 in experiment [1] (first compound 0.6325 µM); 0.242 in experiment [1] (first compound 2 µM); 0.284 in experiment [1] (first compound 6.325 µM); 0.278 in experiment [1] (first compound 20 µM); 0.7 in the experiment with Temozolomide + Alpelisib (first compound 0.2 µM). Further, the relative viability in the experiment with Temozolomide + Alpelisib (first compound 0.6325 µM) amounted to 0.638; in the experiment with Temozolomide + Alpelisib (first compound 2 µM), 0.747; with Temozolomide + Alpelisib (first compound 6.325 µM), 0.646; with Temozolomide + Alpelisib (first compound 20 µM) it was 0.659; in experiment [2] (first compound 0.2 µM) it was 0.474; in experiment [2] (first compound 0.6325 µM), 0.454. Further, the relative viability was 0.437 in experiment [2] (first compound 2 µM); 0.383 in experiment [2] (first compound 6.325 µM); 0.342 in experiment [2] (first compound 20 µM); 0.359 in experiment [3] (first compound 0.2 µM); 0.398 in experiment [3] (first compound 0.6325 µM); 0.349 in experiment [3] (first compound 2 µM). Also, the relative viability in experiment [3] (first compound 6.325 µM) worked out at 0.355; in experiment [3] (first compound 20 µM) it was 0.353.

As to NCI-H520, the relative viability in experiment [1] (first compound 0.2 µM) stood at 0.474; in experiment [1] (first compound 0.6325 µM), 0.441; in experiment [1] (first compound 2 µM), 0.462; in experiment [1] (first compound 6.325 µM), 0.428; in experiment [1] (first compound 20 µM) it was 0.426; with Temozolomide + Alpelisib (first compound 0.2 µM) it was 1.01. Moreover, the relative viability with Temozolomide + Alpelisib (first compound 0.6325 µM) stood at 1.12; with Temozolomide + Alpelisib (first compound 2 µM), 1.05; in the experiment with Temozolomide + Alpelisib (first compound 6.325 µM) it was 0.893; with Temozolomide + Alpelisib (first compound 20 µM), 1.01; in experiment [2] (first compound 0.2 µM) it was 0.589; in experiment [2] (first compound 0.6325 µM), 0.548. The relative viability in experiment [2] (first compound 2 µM) came to 0.675; in experiment [2] (first compound 6.325 µM), 0.499; in experiment [2] (first compound 20 µM) it was 0.589; in experiment [3] (first compound 0.2 µM), 0.215; in experiment [3] (first compound 0.6325 µM), 0.225; in experiment [3] (first compound 2 µM) it was 0.228. The relative viability in experiment [3] (first compound 6.325 µM) amounted to 0.278; in experiment [3] (first compound 20 µM), 0.243.
